What was measured:
Details in all cases: 72 h
Caco-2 [1] = experiment: cell viability relative to DMSO; higher = less toxic
Calu-3 [2] = experiment: as above
HepG2 [3] = experiment: as above
U2OS [4] = experiment: as above
Vero E6 [5] = experiment: as above
Caco-2 [6] = experiment: relative viability EC50 (midpoint between 100% and the lowest measured viability); higher = less toxic
Calu-3 [7] = experiment: as above
HepG2 [8] = experiment: as above
U2OS [9] = experiment: as above
Vero E6 [10] = experiment: as above
Caco-2 [11] = experiment: drug sensitivity score (DSS) for viability; higher = more toxic; extreme values may be limits of the assay
Calu-3 [12] = experiment: as above
HepG2 [13] = experiment: as above
U2OS [14] = experiment: as above
Vero E6 [15] = experiment: as above

SMILES | cell viability (Caco-2 [1]; 1 nM) | cell viability (Caco-2 [1]; 10 nM) | cell viability (Caco-2 [1]; 100 nM) | cell viability (Caco-2 [1]; 1000 nM) | cell viability (Caco-2 [1]; 10000 nM) | cell viability (Calu-3 [2]; 1 nM) | cell viability (Calu-3 [2]; 10 nM) | cell viability (Calu-3 [2]; 100 nM) | cell viability (Calu-3 [2]; 1000 nM) | cell viability (Calu-3 [2]; 10000 nM) | cell viability (HepG2 [3]; 1 nM) | cell viability (HepG2 [3]; 10 nM) | cell viability (HepG2 [3]; 100 nM) | cell viability (HepG2 [3]; 1000 nM) | cell viability (HepG2 [3]; 10000 nM) | cell viability (U2OS [4]; 1 nM) | cell viability (U2OS [4]; 10 nM) | cell viability (U2OS [4]; 100 nM) | cell viability (U2OS [4]; 1000 nM) | cell viability (U2OS [4]; 10000 nM) | cell viability (Vero E6 [5]; 1 nM) | cell viability (Vero E6 [5]; 10 nM) | cell viability (Vero E6 [5]; 100 nM) | cell viability (Vero E6 [5]; 1000 nM) | cell viability (Vero E6 [5]; 10000 nM) | relative viability EC50 (Caco-2 [6]) | relative viability EC50 (Calu-3 [7]) | relative viability EC50 (HepG2 [8]) | relative viability EC50 (U2OS [9]) | relative viability EC50 (Vero E6 [10]) | drug sensitivity score (Caco-2 [11]) | drug sensitivity score (Calu-3 [12]) | drug sensitivity score (HepG2 [13]) | drug sensitivity score (U2OS [14]) | drug sensitivity score (Vero E6 [15])
O=C(Nc1cc(C(F)(F)F)cc(C(F)(F)F)c1)c1cc(Cl)ccc1O [IKK-2-inhibitor-V] | 95.9% | 89.4% | 95.3% | 29.2% | 14.5% | 98.4% | 107% | 98.3% | 99.8% | 13.8% | 99.6% | 99.6% | 112% | 17.2% | 6.8% | 95.7% | 101% | 89.7% | 82.9% | 11.2% | 100% | 90.5% | 98.8% | 52.6% | 16.3% | 0.436 µM | 3.14 µM | 0.477 µM | 1.77 µM | 0.876 µM | 13.8 | 4.8 | 14.7 | 7.7 | 10.3
O=C(NCc1ccc(Oc2ccccc2)cc1)c1nc(-c2cc(Br)c(O)c(Br)c2)no1 [IOWH032] | 104% | 100% | 99.1% | 88.4% | 81% | 101% | 102% | 95.9% | 100% | 88.7% | 91.3% | 102% | 86.7% | 101% | 76.1% | 96.7% | 98.5% | 96.4% | 94.5% | 92.3% | 102% | 106% | 104% | 98.2% | 79.9% | > 10 µM | > 10 µM | > 10 µM | > 10 µM | > 10 µM | 1.4 | 0 | 0.8 | 0 | 0.8
O=C(Oc1ccc([N+](=O)[O-])cc1)N1CCN(Cc2cccc(Oc3ccccc3)c2)CC1 [JZL-195] | 107% | 94.7% | 86.7% | 93.7% | 95.4% | 102% | 104% | 91.5% | 103% | 93.5% | 91.8% | 99.5% | 103% | 99.2% | 82.4% | 98.6% | 100% | 97.4% | 100% | 94.6% | 97.3% | 103% | 104% | 92.9% | 99.7% | > 10 µM | > 10 µM | > 10 µM | > 10 µM | > 10 µM | 0 | 0 | 0.5 | 0 | 0
O=C(O)c1ccc(N[C@@H]2O[C@H](CO)[C@@H](O)[C@H](O)[C@@H]2O)cc1 [K-MAP] | 92.7% | 93.3% | 89.5% | 91% | 95.8% | 117% | 99.5% | 105% | 102% | 99% | 90.8% | 98.1% | 95.4% | 97.1% | 97.5% | 99.7% | 95.4% | 100% | 97.7% | 100% | 94.7% | 96.7% | 93.2% | 98.8% | 109% | > 10 µM | > 10 µM | > 10 µM | > 10 µM | > 10 µM | 0 | 0 | 0 | 0 | 0
